Values after ≈ are worked out from the molar mass of the structure shown. Marks after values point to notes of the source that are not given here. Square brackets hold non-standard residues; d marks the D form. Peptide text beside a SMILES is read from it. Ac6c = NC1(C(=O)O)CCCCC1
Assays:
[1] = test system: E. coli BW25113; assay: MIC, liquid broth micro dilution, wild type; format: cell-based, Escherichia coli
Method: (§1) MIC values were determined using a liquid broth micro dilution assay in sterile 96-well plates (polystyrene F-bottom, Greiner Bio-One GmbH) and a total volume of 100 μL per well. Aqueous peptide solutions (10 g/L) were serially twofold diluted in 25% Mueller-Hinton broth 2 (25% MBH2) or 33% tryptic soy broth (33% TSB) starting at a peptide concentration of 128 mg/L (50 μL/well). Overnight cultures of bacteria grown in 25% MHB2 (or 33% TSB) were diluted 30-fold in 25% MHB2 (or 33% TSB). After an incubation period of 4 h (37 °C, 200 rpm), cells were diluted to 1.5 × 10^7 cfu/mL, based on a McFarland test, and 50 μL were added to each well (final concentration of 7.5 × 10^6 […]). The plates were incubated (37 °C, 20 h) and the optical density was recorded at 595 nm using a microplate reader ([…]^TM, Beckmann Coulter). The MIC was defined as the lowest peptide concentration preventing visible bacterial growth.

[2] = test system: E. coli 70S ribosome; assay: Competitive FP binding screening assay with Cf-ARV-1502 (relative FP); set-up: species or system E. coli BW25113; details: for Ribosome Binding (%): competitive ribosome binding against Cf-ARV-1502 (relative FP; values match 1.2 µmol/L peptide), low value = strong competition; for Inhibition of Cf-ARV-1502 binding to the 70S ribosome (in words): Figure 3: peptide concentration 1.2 µmol/L
Method: E. coli 70S ribosomes were prepared using a previously described protocol that was slightly modified. Briefly, E. coli BW25113 was cultivated in Luria-Bertani (LB) medium and cells were harvested after reaching an optical density of ~4 at 600 nm by centrifugation (5000× g, 15 min, 4 °C, Rotor JLA 8.100, Avanti J-20 XP, Beckmann Coulter, Krefeld, Germany). The cell pellets were frozen and stored at −80 °C. Cells were resuspended in ribosome buffer (2 mL/g cells; 20 mmol/L HEPES-KOH, 6 mmol/L MgCl2, 30 mmol/L NH4Cl, 4 mmol/L 2-mercaptoethanol, pH 7.6). Lysozyme (0.25 g/L cell suspension) was added, and the mixture was incubated on ice for 30 min. Cells were disrupted using the bead mill homogenizer FastPrep-24™ 5G (40 s, 4 m/s, 6 cycles, MP Biomedicals Germany GmbH, Eschwege, Germany) and zirconia/silica beads (0.1 mm diameter). The lysate was centrifuged (1500× g, 5 min, 4 °C, Rotor S4180, Allegra 21R, Beckmann Coulter) and the supernatant was incubated with DNase (5 U/mL) on ice for 60 min. The cell debris was removed by two centrifugation steps (16,000× g, 30 min, 4 °C followed by 32,000× g, 60 min, 4 °C, Rotor JA 30.50 Ti, Avanti J-30I, Beckmann Coulter). The ribosome was pelleted by ultracentrifugation (165,000× g, 17 h, 4 °C, Rotor 70 Ti, Optima LE-80K, Beckmann Coulter), resuspended in ribosome buffer (0.1 mL/g pellet), and stored at −80 °C. The ribosome concentration was determined by recording the absorbance of RNA at 260 nm (NanoPhotometer NP80, Implen GmbH, München, Germany) assuming that 1 AU corresponds to a ribosome concentration of 28 nmol/L. The molecular weight of the E. coli 70S ribosome was assumed to be 2.3 MDa.
E. coli 70S ribosomes and Cf-ARV-1502 were incubated with four different concentrations of unlabeled peptides chosen based on the IC50 curves of reference peptide ARV-1502. Each peptide was diluted in ribosome buffer to obtain a concentration of 4.8 µmol/L and transferred to a 384-well-plate. Peptides were then twofold serially diluted in four steps from 4.8 to 0.6 µmol/L (20 µL). The ribosome extract was diluted in ribosome buffer to reach a concentration of 2 µmol/L and 10 µL were added to each well to obtain a final ribosome concentration of 0.5 µmol/L. Plates were centrifuged (2 min, 500× g, Rotor S2096, Allegra^TM 21R, Beckmann Coulter) and incubated at 28 °C for 90 min. Cf-labeled ARV-1502 was added (10 µL; final concentration of 20 nmol/L) and the plates were again centrifuged and incubated (28 °C, 90 min). After incubation, fluorescence polarization was recorded on a […]^TM microplate reader (λex = 485 nm, λem = 535 nm).
On each plate 12 minimum (30 µL ribosome buffer and 10 µL Cf-ARV-1502) and 12 maximum (20 µL ribosome buffer, 10 µL ribosome solution and 10 µL Cf-ARV-1502) control samples were added. Fluorescence polarization of screening samples was normalized to the fluorescence polarization of these control samples. All screening samples were measured in triplicates and the whole experiment was repeated once on another day.

[3] = test system: E. coli 70S ribosome; assay: Cell-free GFP expression assay (in vitro translation); format: biochemical; details: for In Vitro Translation (%): GFP expression remaining relative to control, concentration not given (higher concentration 50 µmol/L); for Reduction of GFP expression, 50 µmol/L peptide: cell-free expression, peptide-to-ribosome ratio of 25, GFP fluorescence, 37 °C
Description: Possible effects of ARV-1502 and its substituted analogs on the in vitro translation of the green fluorescent protein (GFP) were probed using the NEB PureExpress Delta RF123 Kit (New England Biolabs, Ipswich, MA, USA). The sfGFP DNA template was amplified from pY71sfGFP plasmid by PCR introducing an UAA stop codon. Release factor 1 (RF1) was 50fold diluted in Pure System Buffer (PSB) containing magnesium acetate (1 mol/L), monopotassium phosphate (0.5 mol/L, pH 7.3), potassium glutamate (1 mol/L), NH4Cl (1 mol/L), calcium chloride (0.5 mol/L), spermidine (1 mol/L), putrescine (0.1 mol/L), and DTT (0.1 mol/L). Each reaction used 35 ng of sfGFP template. Peptides were added at a final concentration of 5 µmol/L and 50 µmol/L. The reaction was started by adding Kit solutions A (2 µL) and B (1.5 µL), diluted RF1 (0.5 µL), sfGFP template (0.25 µL or water as negative control), PSB (0.25 µL), and peptide (0.5 µL or water), mixed, transferred into a black 384-well plate (flat bottom, Greiner Bio-One GmbH), and incubated (37 °C, 2 h). The fluorescence was recorded every 10 min (λexc = 485 nm, λem = 535 nm) in a microplate reader (Gemini EM, Molecular Devices LLC, San Jose, CA, USA).

[4] = test system: E. coli BW25113 ∆sbmA ∆mdtM; format: cell-based, Escherichia coli; details: for Effect of the additional mdtM knockout on antibacterial activity: ∆sbmA ∆mdtM compared with ∆sbmA; for Minimal Inhibitory Concentration, 25% MHB2, ∆sbmA ∆mdtM: 25% MHB2, 37 °C; for Minimal Inhibitory Concentration, 25% MHB2, ∆sbmA ∆mdtM / Minimal Inhibitory Concentration, 33% TSB, ∆sbmA ∆mdtM: 20 h, at least duplicates on two days, * once on two days, ** duplicate on one day; for Minimal Inhibitory Concentration, 33% TSB, ∆sbmA ∆mdtM: 37 °C
Method: as §1

[5] = test system: E. coli BW25113 ∆sbmA; format: cell-based, Escherichia coli; details: 20 h, at least duplicates on two days, * once on two days, ** duplicate on one day; for Minimal Inhibitory Concentration, 25% MHB2, ∆sbmA: 25% MHB2, 37 °C; for Minimal Inhibitory Concentration, 33% TSB, ∆sbmA: 37 °C
Method: as §1

[6] = 33% TSB, 37 °C, 20 h, at least duplicates on two days, * once on two days, ** duplicate on one day

CC(C)C[C@H](NC(=O)[C@H](Cc1ccc(O)cc1)NC(=O)[C@@H]1CCCN1C(=O)[C@H](CCCNC(=N)N)NC(=O)[C@@H]1CCCN1C(=O)[C@H](CO)NC(=O)[C@H](CCCCN)NC(=O)[C@@H]1CCCN1C(=O)[C@H](CCCNC(=N)N)NC(=O)C1(N)CCCCC1)C(=O)N1CCC[C@H]1C(=O)N[C@@H](CCCNC(=N)N)C(=O)N1CCC[C@H]1C(=O)N[C@@H](CCCNC(=N)N)C(=O)N1CCC[C@H]1C(=O)N1CCC[C@H]1C(=O)N[C@@H](CCCNC(=N)N)C(=O)N1CCC[C@H]1C(=O)N[C@H](C(=O)N[C@@H](CCCNC(=N)N)C(N)=O)C(C)C [Peptide 29] (H-[Ac6c]RPKSPRPYLPRPRPPRPVR-NH2; N-terminus and C-terminus assumed)
MIC (µg/mL), Table 3 ([1]; BW25113, 4 h): 16 µg/mL (≈ 6.54 µM) | Minimal Inhibitory Concentration, 25% MHB2, wt ([1]; BW25113, 20 h): 16 µg/mL | Minimal Inhibitory Concentration, 33% TSB, wt ([1]; BW25113, 20 h): 32 µg/mL | Ribosome Binding (%) [2]: 78.5 ± 3.3% | In Vitro Translation (%) [3]: 74.3 ± 10.1% | Reduction of GFP expression, 50 µmol/L peptide [3]: ~ 25% | Effect of the additional mdtM knockout on antibacterial activity [4]: no effect

CC(C)[C@H](NC(=O)[C@@H]1CCCN1C(=O)[C@H](CCCNC(=N)N)NC(=O)[C@@H]1CCCN1C(=O)[C@@H]1CCCN1C(=O)[C@H](CCCNC(=N)N)NC(=O)[C@@H]1CCCN1C(=O)[C@H](CCCNC(=N)N)NC(=O)[C@@H]1CCCN1C(=O)[C@H](Cc1ccccc1)NC(=O)[C@H](Cc1ccc(O)cc1)NC(=O)[C@@H]1CCCN1C(=O)[C@H](CCCNC(=N)N)NC(=O)[C@@H]1CCCN1C(=O)[C@H](Cc1ccccc1)NC(=O)[C@H](Cc1ccccc1)NC(=O)[C@@H]1CCCN1C(=O)[C@H](CCCNC(=N)N)NC(=O)C1(N)CCCCC1)C(=O)N[C@@H](CCCNC(=N)N)C(N)=O [Peptide 96] (H-[Ac6c]RPFFPRPYFPRPRPPRPVR-NH2; N-terminus and C-terminus assumed)
MIC (µg/mL), Table 3 ([1]; BW25113, 4 h): 16 µg/mL (≈ 6.25 µM) | Minimal Inhibitory Concentration, 25% MHB2, wt ([1]; BW25113, 20 h): 16 µg/mL | Minimal Inhibitory Concentration, 33% TSB, wt ([1]; BW25113, 20 h): 32 * µg/mL | Ribosome Binding (%) [2]: 62.9 ± 4.8% | In Vitro Translation (%) [3]: 77.2 ± 1.9% | Reduction of GFP expression, 50 µmol/L peptide [3]: ~ 25% | Effect of the additional mdtM knockout on antibacterial activity [4]: no effect

CC(C)C[C@H](NC(=O)[C@H](Cc1ccc(O)cc1)NC(=O)[C@@H]1CCCN1C(=O)[C@H](CCCNC(=N)N)NC(=O)[C@@H]1CCCN1C(=O)[C@H](Cc1ccccc1)NC(=O)[C@H](Cc1ccccc1)NC(=O)[C@@H]1CCCN1C(=O)[C@H](CCCNC(=N)N)NC(=O)C1(N)CCCCC1)C(=O)N[C@@H](CO)C(=O)N[C@@H](CCCNC(=N)N)C(=O)N1CCC[C@H]1C(=O)N[C@@H](CCCNC(=N)N)C(=O)N1CCC[C@H]1C(=O)N1CCC[C@H]1C(=O)N[C@@H](CCCNC(=N)N)C(=O)N1CCC[C@H]1C(=O)N[C@H](C(=O)N[C@@H](CCCNC(=N)N)C(N)=O)C(C)C [Peptide 99] (H-[Ac6c]RPFFPRPYLSRPRPPRPVR-NH2)
Minimal Inhibitory Concentration, 25% MHB2, wt ([1]; 25% MHB2, 37 °C, 20 h, at least duplicates on two days, * once on two days, ** duplicate on one day): 16 to 32 µg/mL | Minimal Inhibitory Concentration, 33% TSB, wt [1, 6]: 64 µg/mL | Inhibition of Cf-ARV-1502 binding to the 70S ribosome (in words) [2]: did not inhibit the binding of Cf-ARV-1502 | Minimal Inhibitory Concentration, 25% MHB2, ∆sbmA ∆mdtM [4]: 32 µg/mL | Minimal Inhibitory Concentration, 33% TSB, ∆sbmA ∆mdtM [4]: 128 µg/mL | Effect of the additional mdtM knockout on antibacterial activity [4]: no effect | Minimal Inhibitory Concentration, 25% MHB2, ∆sbmA [5]: 32 µg/mL | Minimal Inhibitory Concentration, 33% TSB, ∆sbmA [5]: 128 µg/mL

CC(C)[C@H](NC(=O)[C@@H]1CCCN1C(=O)[C@H](CCCNC(=N)N)NC(=O)[C@@H]1CCCN1C(=O)[C@@H]1CCCN1C(=O)[C@H](CCCNC(=N)N)NC(=O)[C@@H]1CCCN1C(=O)[C@H](CCCNC(=N)N)NC(=O)[C@@H]1CCCN1C(=O)[C@H](Cc1ccccc1)NC(=O)[C@H](CCCCN)NC(=O)[C@@H]1CCCN1C(=O)[C@H](CCCNC(=N)N)NC(=O)[C@@H]1CCCN1C(=O)[C@H](CCCCN)NC(=O)[C@H](CC(=O)O)NC(=O)[C@@H]1CCCN1C(=O)[C@H](CCCNC(=N)N)NC(=O)C1(N)CCCCC1)C(=O)N[C@@H](CCCNC(=N)N)C(N)=O [Peptide 123] (H-[Ac6c]RPDKPRPKFPRPRPPRPVR-NH2)
Minimal Inhibitory Concentration, 33% TSB, wt [1, 6]: 128 µg/mL | MIC / activity against E. coli ([1]; BW25113, 4 h): 16 to 32 µg/mL | Minimal Inhibitory Concentration, 25% MHB2, wt ([1]; BW25113, 20 h): 32 µg/mL | Inhibition of Cf-ARV-1502 binding to the 70S ribosome (in words) [2]: did not inhibit the binding of Cf-ARV-1502 | Minimal Inhibitory Concentration, 25% MHB2, ∆sbmA ∆mdtM [4]: 128 µg/mL | Minimal Inhibitory Concentration, 33% TSB, ∆sbmA ∆mdtM [4]: >128 µg/mL | Effect of the additional mdtM knockout on antibacterial activity [4]: weakened the activity | Minimal Inhibitory Concentration, 25% MHB2, ∆sbmA [5]: 64 µg/mL | Minimal Inhibitory Concentration, 33% TSB, ∆sbmA [5]: >128 µg/mL

Reference: paper PMC8950706, “Influence of Substitutions in the Binding Motif of Proline-Rich Antimicrobial Peptide ARV-1502 on 70S Ribosome Binding and Antimicrobial Activity” (International Journal of Molecular Sciences, 2022)
